10 compounds from patent US20100167933A1, “Piperazine Compounds With Herbicidal Action” (priority 2007, published 2010) can be followed below.

SMILES strings stand for the structures.

The first data set deals with APESV (Apera spica-venti, windgrass). Description: greenhouse experiment, pre-emergence herbicidal activity against APESV. The data set is classed as in vivo. To be noted: pre-emergence method, application rate 0.5 kg/ha; scale from 0 to 100. The text has this: The seeds of the test plants were sown separately for each species. For the pre-emergence treatment, the active ingredients, which had been suspended or emulsified in water, were applied directly after sowing by means of finely distributing nozzles. The containers were irrigated gently to promote germination and growth and subsequently covered with transparent plastic hoods until the plants had rooted. This cover caused uniform germination of the test plants, unless this has been impaired by the active ingredients. Depending on the species, the plants were kept at 10-25° C. or 20-35° C. The test period extended over 2 to 4 weeks. During this time, the plants were tended, and their response to the individual treatments was evaluated. Evaluation was carried out using a scale from 0 to 100. 100 means no emergence of the plants, or complete destruction of at least the aerial moieties, and 0 means no damage, or normal course of growth. A good herbicidal activity is given at values of at least 70 and a very good herbicidal activity is given at values of at least 85. The plants used in the greenhouse experiments belonged to the following species: [table]
Consider `CSC1(Cc2ccccc2)C(=O)N(C)C(=Cc2ccccc2C#N)C(=O)N1C` (stereo not shown) [1a/1b, 2-(5-Benzyl-1,4-dimethyl-5-methylsulfanyl-3,6-dioxopiperazin-2-ylidenemethyl)benzonitrile], for which the “herbicidal activity against APESV” value is on record as “good to very good”.

Consider `CN1C(=O)C(Cc2ccccc2)(C(=O)C(F)(F)F)N(C)C(=O)/C1=C/c1ccccc1C#N` (stereo not shown) [Example 4, 2-[5-Trifluoroacetyl-5-benzyl-1,4-dimethyl-3,6-dioxopiperazin-(Z)-2-ylidenemethyl]benzonitrile], for which the “herbicidal activity against APESV” value is recorded as “good to very good”.

Staying with this data set, now noted: pre-emergence method, application rate 1.0 kg/ha; scale from 0 to 100.
Regarding `C=CCC1(Cc2ccccc2)C(=O)N(C)/C(=C\c2ccccc2C#N)C(=O)N1C` (stereo not shown) [Example 2, 2-(5-Benzyl-1,4-dimethyl-5-allyl-3,6-dioxo-piperazin-(Z)-2-ylidenemethyl)-benzonitrile], the “herbicidal activity against APESV” value is listed as “very good (a very good herbicidal activity is given at values of at least 85)”.

System in a further data set: not given
Assay: not given
Details: not given
Turning to `CN1C(=O)c2cc3cccnc3n2C(=O)C1(C)Cc1ccccc1` (stereo not shown) [Example 24], the melting point – broadly, the temperature of the solid-liquid transition – was found to be 180 °C.

For the compound `CN1C(=O)C2(CC2c2ccccc2)N(C)C(=O)/C1=C/c1cccnc1Cl` (stereo not shown) [Example 33], the melting point amounted to 169 °C.

In turn, `CN1C(=O)C2(CC2c2ccccc2)N(C)C(=O)/C1=C/c1ccccc1Br` (stereo not shown) [Example 31] yielded a melting point of 78 °C.

On to `CN1C(=O)C2(CC2c2ccccc2)N(C)C(=O)/C1=C/c1cccnc1C#N` (single isomer, unassigned) [Example 34], for which the melting point came out at 224 °C.

Regarding `CN1C(=O)C2(CC2c2ccccc2)N(C)C(=O)/C1=C/c1ccccc1C#N` (single isomer, unassigned) [Example 32], the melting point amounted to 190 °C.

As to `CN1C(=O)c2cc3c([N+](=O)[O-])ccc(F)c3n2C(=O)C1(C)Cc1ccccc1` (stereo not shown) [Example 23], the melting point was in the range of 170 to 172 °C.

Consider `CN1C(=O)C2(CC2c2ccccc2)N(C)C(=O)/C1=C/c1ccccc1[N+](=O)[O-]` (stereo not shown) [Example 30, 6-[1-(2-Nitrophenyl)-meth-(Z)-ylidene]-4,7-dimethyl-1-phenyl-4,7-diazaspiro[2.5]octane-5,8-dione], for which the melting point came to 145 °C.
